The values that follow come from patent US12539294B2, “Combination of an azetidine LPA1 receptor antagonist with pirfenidone and/or nintedanib for use in the treatment of fibrotic diseases” (Idorsia Pharmaceuticals Ltd, priority 2020, dated 2026).

Series [1] addresses T1, human LPA1 receptor (Homo sapiens, UniProt Q92633).
T1 construct: TEV protease site; Gal4-VP16 transcription factor; host or cells: Tango EDG2-bla U2OS cells
Nature of the series: Beta-arrestin recruitment assay (Tango EDG2-bla U2OS cells) to determine IC50 values for human LPAR1. The following applies: antagonist mode, LPA 18:1 500 nM final; geomean where multiple values. It is filed as cell-based. From the text: Biological Assays Beta-Arrestin Recruitment Assay to Determine IC50 values for human LPAR1
The Tango™ EDG2-bla U2OS cells are obtained from Invitrogen. These cells contain the human LPA1 receptor cDNA linked to a TEV protease site and a Gal4-VP16 transcription factor integrated into the Tango™ GPCR-bla U2OS parental cell line. This parental cell line stably expresses a beta-arrestin/TEV protease fusion protein and the beta-lactamase (bla) reporter gene under the control of a UAS response element. Upon LPA (agonist) binding, LPA1 receptor gets activated, leading to arrestin-protease recruitment and proteolytic release of the transcription factor: The transcription factor then regulates transcription of a beta-lactamase reporter construct, which is measured upon addition of the live-cell substrate.
10'000 Tango™ EDG2-bla U2OS cells are seeded in a 384-well black with clear bottom plate in 30 μl Freestyle 293 Expression Medium (Invitrogen) and incubated for 20 h at 37° C., 5% CO2. For antagonist assays, 5 μl of test compound (dilution series in DMSO/Freestyle 293 Expression medium/0.1% fatty acid free BSA (Sigma)) or buffer control are added per well and incubated for 30 min at 37° C., 5% CO2. 5 μl of LPA 18:1 (500 nM final) (solution in Freestyle 293 Expression medium/0.1% fatty acid free BSA (Sigma)) are added per well and the plate incubated for 16 h at 37° C., 5% CO2. Cells are then loaded with LiveBLAzer-FRET™ B/G Substrate (Invitrogen) for 2 h in the dark and the fluorescence emission at 460 nm and 530 nm is measured using the SynergyMx reader (BioTek). Following the background subtraction from both channels, the 460/530 nm emission ratio for each well is calculated, then plotted and fitted to a 4-parameter logistic function to obtain IC50 values. IC50 is the concentration of antagonist inhibiting 50% of the maximal response.
Where multiple values were measured, geomean values are given.

In series [2] the test system is primary human lung (myo)fibroblasts. The note with it: cited from earlier work; for fibroblast to myofibroblast differentiation and/or pro-fibrotic activity of (myo)fibroblasts: primary human lung (myo)fibroblasts, various conditions.
For series [3] the following is noted: cited from earlier work.
Series [4] relates to NHLF. In words: TGFβ-induced αSMA expression in human fibroblasts, combination with nintedanib. It is filed as cell-based. The note with it: 1 μM nintedanib, TGFβ 5 ng/ml, 48 h.
Method: Combination Efficacy Experiment: TGFβ-Induced αSMA Expression in Human Fibroblasts:
NHLF were obtained from Lonza. 10'000 cells were seeded in 24-well plates in 300 μl FGM™ and incubated for 20 hours at 37° C., 5% CO2. The medium was changed for 300 μl FBM™ supplemented with 0.1% fatty acid free BSA (Sigma) and the plate incubated for 20 hours at 37° C., 5% CO2. 100 μl of the respective COMPOUND, nintedanib or their combination (solution in FBM™/0.1% fatty acid free BSA) were added per well and incubated for 30 minutes, followed by addition of 100 μl of TGFβ (5 ng/ml final) (solution in FBM™/0.1% fatty acid free BSA) and incubation for 48 h at 37° C., 5% CO2. […] Samples were resolved by SDS-PAGE on 4-12% Novex Bis-Tris precast gels (Thermo Fischer Scientific) and analyzed by western blot using αSMA (Sigma) and HRP-coupled secondary antibodies.
Membranes were treated with Western Lighting Enhanced Chemiluminescence Substrate (Perkin Elmer) and the chemiluminescence signal was recorded by the reader Fusion FX6 (Viber Lourmat). Signals were quantified using densitometric analysis in Fusion software. % of inhibition of TGFβ-induced αSMA expression was calculated for each COMPOUND, nintedanib and their combination. Additive effect was calculated by adding the values of % of inhibition by COMPOUND alone and nintedanib alone and expressed as “expected combo inhibition”. […]
Series [5] relates to LPA-induced vascular leakage. In words: mouse LPA-induced skin vascular leakage model. It is filed as in vivo. The following applies: oral administration of 30 mg/kg to mice. The method, then: The in vivo potency of the compounds of Formula (I) can be determined using a mouse LPA-induced skin vascular leakage model. Female Balb/c mice are treated with either vehicle or test compound (p.o.) for at least 1 h prior to administration of the albumin marker Evans blue (50 mg/kg, i.v., 0.9% NaCl) and subsequent challenge with LPA (5 μg, i.d.). After 30 minutes, mice are sacrificed by CO2 inhalation. Discs of skin from the injection sites are removed, digested in formamide (500 μl, 37° C., 24 hrs) and the content of Evans blue quantified by colorimetric assay. Results are expressed as extravasated Evans blue per skin disc (μg/disc).
As an example, selected compound of the present invention, Ex 5-2, is able to effectively reduce LPA-induced vascular leakage after oral administration of 30 mg/kg to mice as compared to a group of animals treated with vehicle only. Reduction of vascular leakage compared to vehicle group was ≥60%.

The conditions of series [6]: cited from earlier work. The source holds these as a separate data set.
Series [7] relates to Normal Human Lung Fibroblasts (NHLF). In words: TGFβ-induced αSMA expression in human fibroblasts, combination with pirfenidone. It is filed as cell-based. The method, then: The anti-fibrotic effect of the respective Example COMPOUND A-C or Reference COMPOUND D (BMS-986020) and pirfenidone alone or in combination can be determined in vitro in the assay of TGFβ-induced myofibroblast differentiation.
Combination Efficacy Experiment: Transforming Growth Factor Beta (TGFβ)-Induced α-Smooth Muscle Actin (αSMA) Expression in Human Fibroblasts:
Normal Human Lung Fibroblasts (NHLF) were obtained from Lonza. 10'000 cells were seeded in 24-well plates in 300 μl Fibroblast Growth Medium-2 (FGM™-2, Lonza) and incubated for 20 hours at 37° C., 5% CO2. […] Samples were resolved by SDS-PAGE on 4-12% Novex Bis-Tris precast gels (Thermo Fischer Scientific) and analyzed by western blot using αSMA (Sigma) and HRP-coupled secondary antibodies. Membranes were treated with Western Lighting Enhanced Chemiluminescence Substrate (Perkin Elmer) and the chemiluminescence signal was recorded by the reader Fusion FX6 (Viber Lourmat). Signals were quantified using densitometric analysis in Fusion software. % of inhibition of TGFβ-induced αSMA expression was calculated for each COMPOUND, pirfenidone and their combination. Additive effect was calculated by adding the values of % of inhibition by COMPOUND alone and pirfenidone alone and expressed as “expected combo inhibition”. Measured % of inhibition by COMPOUND and pirfenidone combination was expressed as “measured combo inhibition”. […]

The conditions of series [8]: cited from earlier work. The source holds these as a separate data set.

T1 sequence (Q92633 whole entry, the tested form may be a part): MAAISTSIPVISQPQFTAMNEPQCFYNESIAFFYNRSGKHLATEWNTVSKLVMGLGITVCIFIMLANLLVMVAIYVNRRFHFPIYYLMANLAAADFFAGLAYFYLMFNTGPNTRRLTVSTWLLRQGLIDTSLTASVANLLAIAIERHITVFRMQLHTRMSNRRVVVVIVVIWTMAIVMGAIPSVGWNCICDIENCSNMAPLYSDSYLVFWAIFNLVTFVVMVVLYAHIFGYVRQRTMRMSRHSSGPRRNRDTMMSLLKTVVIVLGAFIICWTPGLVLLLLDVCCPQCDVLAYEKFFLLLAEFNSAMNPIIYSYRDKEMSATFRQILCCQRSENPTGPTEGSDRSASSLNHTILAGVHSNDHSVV

Take `Cc1ccc(NC(=O)C2(c3ccccc3C(C)C)CN(S(N)(=O)=O)C2)c(OC(F)F)n1` [Example 5-7, N-(2-(difluoromethoxy)-6-methylpyridin-3-yl)-3-(2-isopropylphenyl)-1-sulfamoylazetidine-3-carboxamide]: the IC50 in series [1] came out at 2 nM.
On the same count and under the same terms, to `CCOc1cc(Cl)ncc1NC(=O)C1(c2ccccc2C(C)C)CN(S(N)(=O)=O)C1` [Example 5-3, N-(6-chloro-4-ethoxypyridin-3-yl)-3-(2-isopropylphenyl)-1-sulfamoylazetidine-3-carboxamide] belongs 3 nM; to `COc1cc(F)ncc1NC(=O)C1(c2ccccc2C(C)C)CN(S(N)(=O)=O)C1` [Example 5-1, N-(6-fluoro-4-methoxypyridin-3-yl)-3-(2-isopropylphenyl)-1-sulfamoylazetidine-3-carboxamide], 19 nM; to `Cc1ccc(NC(=O)C2(c3ccccc3C(C)C)CN(CCCC(C)(C)C(=O)O)C2)c(OC(F)F)n1` [Example 3-1, 5-(3-((2-(difluoromethoxy)-6-methylpyridin-3-yl)carbamoyl)-3-(2-isopropylphenyl)azetidin-1-yl)-2,2-dimethylpentanoic acid], 13 nM.
For the molecule `CCS(=O)(=O)O.COC(=O)c1ccc2c(c1)NC(=O)/C2=C(\Nc1ccc(N(C)C(=O)CN2CCN(C)CC2)cc1)c1ccccc1` [nintedanib, (3Z)-2,3-dihydro-3-[[[4-[methyl-[(4-methyl-1-piperazinyl)-acetyl]-amino]-phenyl]-amino]-phenylmethylene]-2-oxo-1H-indole-6-carboxylic acid methyl ester ethanesulfonate], the “fibroblast to myofibroblast differentiation and/or pro-fibrotic activity of (myo)fibroblasts” value in series [2] is “attenuated, but usually did not fully inhibit”. Moreover, the “elevated liver enzymes and drug-induced liver injury” value in series [3] (clinical and postmarketing) is “ALT, AST, and bilirubin elevations have occurred”. In addition, in series [3] (two phase III trials, over one year), the “reduction of the decline in lung function” value is on record as “approximately 50%”. Besides, in series [4], the “inhibition of TGFβ-induced αSMA expression, nintedanib alone” value is listed as “minimally inhibited”.
Turning to “4-(3-((6-chloro-4-ethoxypyridin-3-yl)carbamoyl)-3-(2-isopropylphenyl)azetidin-1-yl)-2,2-dimethyl-4-oxobutanoic acid [Example 4-5]”, the IC50 in series [1] came out at 12 nM.
Consider `COc1cc(Cl)ncc1NC(=O)C1(c2ccccc2C(C)C)CN(S(N)(=O)=O)C1` [Example 5-2, N-(6-chloro-4-methoxypyridin-3-yl)-3-(2-isopropylphenyl)-1-sulfamoylazetidine-3-carboxamide], for which, in series [5], the “Reduction of vascular leakage compared to vehicle group” value is at least 60%.
With `Cc1noc(-c2ccc(-c3ccc(C4(C(=O)O)CC4)cc3)cc2)c1NC(=O)O[C@H](C)c1ccccc1` [BMS-986020], the “rate of decline in forced vital capacity (FVC) versus placebo” value in series [6] (IPF patients, b.i.d.) is “significantly slower rate of decline”. Also, the hepatic enzymes result in series [6] (both BMS-986020 treatment groups) is listed as “Dose-related elevations”. In series [6] (study terminated early), the “cases of cholecystitis determined to be related to treatment” value is “three cases of cholecystitis”.
For `Cc1ccc(NC(=O)C2(c3ccccc3C(C)C)CN(S(N)(=O)=O)C2)c(OC(C)C)n1` [Example 5-10, N-(2-isopropoxy-6-methylpyridin-3-yl)-3-(2-isopropylphenyl)-1-sulfamoylazetidine-3-carboxamide], the IC50 in series [1] is 14 nM.
As to `Cc1ccc(=O)n(-c2ccccc2)c1` [pirfenidone, 5-methyl-1-phenyl-2-(1H)-pyridone], the “concentrations used to observe significant effects in vitro” value in series [2] (in vitro) is above 0.5 mM. Moreover, the “fibroblast to myofibroblast differentiation and/or pro-fibrotic activity of (myo)fibroblasts” value in series [2] was “attenuated, but usually did not fully inhibit”. Moreover, the “inhibition of TGFβ-induced αSMA expression, pirfenidone alone” value in series [7] (2 mM pirfenidone, TGFβ 5 ng/ml, 48 h) is on record as “minimally inhibited”. For the same molecule, the “pirfenidone potency (IC50) on TGFβ-induced αSMA expression when combined with COMPOUND A” value in series [7] (presence of 10 nM, 100 nM and 1000 nM COMPOUND A versus absence (FIG. 5)) is reported as “gains in potency”. Further, in series [8] (2403 mg/day group), the “patients requiring dosage reduction or interruption for gastrointestinal events” value is 18.5%, the “patients who discontinued treatment due to a gastrointestinal event” value is listed as 2.2% and the “patients with elevations ≥10×ULN in ALT or AST” value is 0.3%. In addition, the “incidence of elevations in ALT or AST ≥3× upper limit of normal (ULN)” value in series [8] (2403 mg/day, three Phase 3 trials) is reported as 3.7%. Moreover, the “drug-induced liver injury (DILI)” value in series [8] (clinical and postmarketing) is reported as “Cases of drug-induced liver injury (DILI) have been observed”.
`COc1nc(C)ccc1NC(=O)C1(c2ccccc2C(C)C)CN(S(N)(=O)=O)C1` [Example 5-8, 3-(2-isopropylphenyl)-N-(2-methoxy-6-methylpyridin-3-yl)-1-sulfamoylazetidine-3-carboxamide]: the IC50 in series [1] is 51 nM.
Regarding `CCOc1cc(Cl)ncc1NC(=O)C1(c2ccccc2C(C)C)CN(CCC(C)(C)C(=O)O)C1` [Example 2-4, 4-(3-((6-chloro-4-ethoxypyridin-3-yl)carbamoyl)-3-(2-isopropylphenyl)azetidin-1-yl)-2,2-dimethylbutanoic acid], the IC50 in series [1] was determined as 20 nM.
`COc1cc(Cl)ncc1NC(=O)C1(c2ccccc2C(C)C)CN(C(=O)CC(C)(C)C(=O)O)C1` [Example 4-2, 4-(3-((6-chloro-4-methoxypyridin-3-yl)carbamoyl)-3-(2-isopropylphenyl)azetidin-1-yl)-2,2-dimethyl-4-oxobutanoic acid]: the IC50 in series [1] stood at 79 nM.

Usually IC50 stands for the midpoint of a concentration-inhibition curve.
